Data from ChEMBL document CHEMBL1156829 (Proc Natl Acad Sci U S A, 2008).
pEC50: −log10 of the molar value.

How the values were obtained:
[1] = NOVARTIS: Cytotoxicity against human hepatocellular carcinoma cell line (Huh7); assay type: toxicity, cell-based, Huh-7; details: Huh7 cells (hepatocellular carcinoma cell line)
Plasmodium falciparum [2] = assay: NOVARTIS: Inhibition of Plasmodium falciparum 3D7 (drug-susceptible) proliferation in erythrocyte-based infection assay; assay type: functional, organism-based; details: Plasmodium falciparum, 3D7
Plasmodium falciparum [3] = assay: NOVARTIS: Inhibition of Plasmodium falciparum W2 (drug-resistant) proliferation in erythrocyte-based infection assay; assay type: functional, organism-based; details: for pEC50: Plasmodium falciparum, W2, read-out: EC50

SMILES	CC50 [1] [nM]	pEC50 (Plasmodium falciparum [2])	pEC50 (Plasmodium falciparum [3])	EC50 (Plasmodium falciparum [3])
COc1cc(NCc2cnc(N)nc2N)cc(OC)c1	> 10000	6.48	7.00	
Nc1ccc(-c2nc3cc(Oc4ccc(Oc5ccc6[nH]c(-c7ccc(N)cc7)nc6c5)cc4)ccc3[nH]2)cc1	15000	6.54	6.61	
O=[N+]([O-])c1ccc(-n2ncc(-c3nc(-c4ccc(Cl)cc4)no3)c2C(F)(F)F)cc1	> 10000	< 5.92	7.57	
COC(=O)c1cnn(-c2ccccc2)c1C=NOC(=O)c1ccccc1	> 100000	< 5.28	5.62	
C[C@@H]1C[C@@H]([C@H](O)CC2CC(=O)NC(=O)C2)C(=O)[C@@H](C)C1 [CYCLOHEXIMIDE]	> 100000	6.95	6.74	
CCOC(=O)c1ccc(N(C(=O)Cc2c[nH]c3ccccc23)C(C(=O)NC2CCCCC2)c2cccc(OC)c2OC)cc1 (stereo not given)	> 100000	7.27	6.98	
Cc1ccc(N=C2NC(=O)/C(=C\c3cc(C)n(-c4cccc([N+](=O)[O-])c4)c3C)S2)cc1	> 10000	6.35	6.31	
CC1=C(C(=O)OC2CCCC2)C(c2ccc(Cl)cc2)C2=C(CC(c3ccc(Cl)cc3)CC2=O)N1 (stereo not given)	> 100000	5.59	6.31	
O=C(C1CCN(S(=O)(=O)c2cccc3nonc23)CC1)N1CCCc2ccccc21	> 10000	< 5.90	6.27	
COc1cc(C(=O)/C=C/Nc2ccc(N(C)C)cc2)cc(OC)c1OC	> 10000	< 5.92	< 5.90	
CC1=CC(=C(C#N)c2nc3ccccc3s2)C=C(C)N1CC1CCCO1 (stereo not given)	> 100000	6.39	6.17	
Cc1ccc(C(=O)NCCN2CCCCC2)cn1	> 10000	< 5.88	6.21	
COc1ccc(OC)c(-c2ccc(O)c(CNCC3(O)CCCCC3)c2)c1	> 10000	6.09	6.12	
O=C1NC(=S)N/C1=C/c1ccc(C(F)(F)F)cc1	> 2880	< 5.99	< 5.96	
CC(C)(C)NC(=S)Nc1cccc(Cl)c1Cl	> 100000	< 5.14	5.68	
COc1cc(C(c2c(C)n(C)n(-c3ccccc3)c2=O)c2c(C)n(C)n(-c3ccccc3)c2=O)cc(Cl)c1OCc1ccccc1	38300	5.57	6.34	
C[n+]1c(/C=C/c2ccc(F)cc2)ccc2ccccc21	> 10000	6.98	7.04	
O=C(N=CNNc1ccccc1F)c1cc(OCC(F)(F)F)ccc1OCC(F)(F)F	> 10000	< 6.27	> 8.50	
Cn1c(=NC(=O)c2ccc(S(=O)(=O)N3CCCCC3)cc2)sc2cc(Cl)ccc21	> 10000	< 5.90	7.57	
Cc1ccn2c(NC(C)(C)CC(C)(C)C)c(-c3ccccc3OC(=O)C3CCC3)nc2c1	> 10000	6.09	7.12	
COCCN(C)C(=O)COC(c1cccs1)c1cccnc1Cl (stereo not given)	> 10000	6.39	6.52	
CSc1nc2nc(C)c(Cc3cccc(C(F)(F)F)c3)c(C)n2n1	> 100000	6.57	6.65	
CCCNC(=O)c1ccc(OC2CCN(CC(c3ccccc3)c3ccccc3)CC2)c(OC)c1	> 10000	6.21	6.41	
CC(=NO)c1ccc2c(c1)C(C)(C)CCC2(C)C	37100	5.45	5.41	
CC(C)Nc1ccc(Nc2ccnc3cc4ccccc4cc23)cc1	5400	7.50	6.56	

SMILES	CC50 [1] [nM]	pEC50 (Plasmodium falciparum [2])	pEC50 (Plasmodium falciparum [3])	EC50 (Plasmodium falciparum [3])
CCCCCc1c(C)c(C#N)c2nc3ccccc3n2c1NCCN(CC)CC	> 10000	< 5.90	5.88	
CN(C)CCCNc1cc(-c2ccccc2)nc2ccccc12	18600	6.91	5.29	
CCCCCc1cc(O)c2c3c(c(=O)oc2c1)CN(C)CC3	> 96800	7.31	7.42	
CSc1nccc(-c2cc(F)cc3c2OC(CNC(=O)C2CC(=O)c4ccccc42)C3)n1 (stereo not given)	> 10000	5.74	< 6.01	
O=C(NCc1ccccc1)c1cnc(NCCCN2CCCC2)nc1NCCc1ccccc1	> 10000	6.19	< 5.90	
CCN1CCN(c2cc(C)c3cc(NC(=O)c4cc(OC)cc(OC)c4)ccc3n2)CC1	12900	6.74	6.23	
CC(C)N1CC=C(c2c[nH]c3ccccc23)CC1	> 100000	6.69	6.20	
COC(=O)c1c(S(=O)(=O)NCCc2ccccc2)sc2c1CCN(Cc1cccnc1)C2	> 10000	5.80	5.72	
CCC(c1nc2ccccc2c(=O)n1-c1ccc(Br)cc1)N(CCc1ccccc1)C(=O)c1cccc(C(F)(F)F)c1 (stereo not given)	> 10000	6.06	6.26	
CCOC(=O)C1=C(C)NC2=C(C(=O)CC(c3ccc(Cl)cc3)C2)C1c1ccccc1Cl (stereo not given)	> 100000	7.35	7.39	
CN(C)CCN1CCN(c2cccc(-c3cccc4cccnc34)n2)CC1	18800	7.74	7.26	
Cc1cc(N2CCCCC2)nc2ccc(NC(=O)c3cccc([N+](=O)[O-])c3)cc12	> 100000	6.36	6.10	
CCCCCOC(=O)C1=C(C)Nc2ncnn2C1c1cccc([N+](=O)[O-])c1 (stereo not given)	> 10000	< 6.01	< 5.90	
CCOC(=O)C1=C(C)NC2=C(C(=O)C(C(=O)OCC)C(c3ccccc3OC)C2)C1c1cccs1 (stereo not given)	> 100000	5.74	6.62	
CCCCCN(C(=O)c1cccc(OC)c1)C(CC)c1nc2ccccc2c(=O)n1-c1ccccc1OC (stereo not given)	> 10000	6.21	6.50	
Cc1cc(Nc2ccc(C)c(C)c2)n2nc(C)nc2n1	> 100000	6.74	6.42	
O=C(NC(=CC=Cc1ccccc1)C(=O)N1CCOCC1)c1ccccc1	> 100000	5.41	6.91	
CCN(CC)CCNC(=O)C1c2ccccc2C(=O)N(Cc2ccc(F)cc2)C1c1ccc(OC)cc1 (stereo not given)	46400	6.11	5.62	
COC(=O)c1sc2nc(CN3CCC(C)CC3)ccc2c1NC(=O)c1ccc(C)s1	> 100000	5.01		No fit
COC(=O)C1=C(C)NC2=C(C(=O)CC(C)(C)C2)C1c1ccccc1[N+](=O)[O-] (stereo not given)	> 91500	< 4.90	5.22	
CCCn1nc(NS(C)(=O)=O)c2cc3cccc(C)c3nc21	> 100000	< 5.04	5.69	
O=C(/C=C/c1ccc(-c2cccc([N+](=O)[O-])c2)o1)Nc1nccs1	> 10000	< 5.90	< 6.24	
CC(C)CNC(=O)c1cnc(NCCCN)nc1NC1CCCC1	> 10000	6.20	7.57	
Cc1nc(NC(=N)N)nc2c(C)cccc12	16400	6.52	6.35	
Cc1cc(Nc2cccc(Cl)c2)nc2ccc(NC(=O)c3cccnc3)cc12	4190	6.14	5.88	
